Test results published in article PMC11550998, “Novel 5-HT7 receptor antagonists modulate intestinal immune responses and reduce severity of colitis” (American Journal of Physiology - Gastrointestinal and Liver …, 2024).
Values after ≈ are worked out from the molar mass of the structure shown. Read-outs that look alike come from different tables or passages of the source.

Key:
[1] = Mouse in vivo pharmacokinetic studies; set-up: species or system C57BL/6 male mice; settings: for bioavailability / AUC / Cmax / Tmax / clearance / half-life: male; for bioavailability: C57BL/6, mouse, plasma, oral, read-out: %F (oral bioavailability); for AUC / Cmax / Tmax / clearance / half-life: C57BL/6, plasma
Method: Adult C57BL/6 male mice (2–4 mo old, body weight ranging from 20 to 25 g, Charles River Laboratories) were maintained under controlled temperature (23 ± 1°C) and lighting (lights on 6:00 AM–6:00 PM) with food and water provided ad libitum. Pharmacokinetic studies were performed either via intravenous bolus infusion or through oral gavage. Mice were administered each compound intravenously by tail vein injection (1 mg/kg) or orally through gavage (5 mg/kg). Serial blood samples were collected at 5, 15, and 30 min and 1, 2, 4, 8, and 24 h after intravenous administration, and at 15, 30 min, and 1, 2, 4, 8, and 24 h after oral gavage administration. All blood samples were centrifuged at 1,500 g for 5 min. Pharmacokinetic study procedures were approved by Temple University’s Institutional Animal Care and Usage Committee and were in accordance with National Institutes of Health (NIH) guidelines. For all in vivo efficacy studies, experiments were approved by the animal ethics committee of McMaster University and conducted under Canadian guidelines for animal research.
Plasma concentrations were determined using an LC-MS/MS method. Briefly, 100-µL acetonitrile with an internal standard solution (Diltiazem, 0.1 μg/mL) was added to 50-µL plasma or tissue homogenate. After being vortexed for 1 min, the mixture was centrifuged at 3,000 g for 5 min. LC-MS/MS analysis was carried out using a high-performance liquid chromatography system consisting of an Agilent 1100 system interfaced to an API4000 SCIEX triple-quadrupole tandem mass spectrometer (Applied Biosystems/MDS Sciex, Foster City, CA). MC-170073, MC-230078, MC-230079, and the internal standard were separated by using a Phenomenex (Torrance, CA) C18 column (2.0 × 50 mm). The mobile phase consisted of solvent A (0.1% formic acid in water) and solvent B (0.1% formic acid in acetonitrile). A linear gradient of solvent B from 5 to 95% was used. The detection and quantification of analytes were performed with the m/z transition 347/191 for MC-170073, MC-230078, and MC-230079, and m/z 415/178 for diltiazem.

[2] = Aqueous solubility (pH 7.4) assay, Millipore MultiScreen filter system; format: physicochemical; settings: read-out: Sol (aqueous solubility)
Method: Compounds were assessed for their solubility at pH 7.4 using the commercially available Millipore MultiScreen Solubility filter system (Millipore, Billerica, MA). Analysis was performed by liquid chromatography-tandem mass spectrometry (LC-MS/MS).

[3] = molecular target: 5-HT1A, 5-HT1B, 5-HT1D, 5-HT1E, 5-HT2A, 5-HT2B, 5-HT2C, 5-HT3, 5-HT4, 5-HT5A, and 5-HT6; assay: Off-target assessment at other 5-HT receptors (PDSP); format: binding; settings: 1B, 1D, 1E, 2A, 2B, 2C, 3, 4, 5A, 6
Method: In vitro assessments of MC-170073, MC-20078, and MC-230079 activity at the following targets were determined using the assay systems available through the Psychoactive Drug Screening Program (PDSP). Detailed protocols for each assay are available at https://pdsp.unc.edu/pdspweb/?site=assays. Receptors 5-HT1A, 5-HT1B, 5-HT1D, 5-HT1E, 5-HT2A, 5-HT2B, 5-HT2C, 5-HT3, 5-HT5A, 5-HT6, 5-HT7, α1A, α1B, α1D, α2A, α2B, α2C, benzodiazepine, β1, β2, β3, GABA-A, H1, H2, H3, H4, M1, M2, M3, M4, M5, δ-opioid, κ-opioid, and µ-opioid and transporters dopamine, norepinephrine, and serotonin were evaluated.

[4] = molecular target: T1, h5-HT7D expressed in U2OS cells (Homo sapiens, UniProt P34969); assay: 5-HT7 functional assay (cAMP Hunter eXpress GPCR luminescence assay); format: cell-based; settings: antagonist, cAMP production stimulated by 150 nM 5-HT (EC80), Cheng-Prusoff
T1 construct: host or cells: U2OS
T1 sequence (P34969 whole entry): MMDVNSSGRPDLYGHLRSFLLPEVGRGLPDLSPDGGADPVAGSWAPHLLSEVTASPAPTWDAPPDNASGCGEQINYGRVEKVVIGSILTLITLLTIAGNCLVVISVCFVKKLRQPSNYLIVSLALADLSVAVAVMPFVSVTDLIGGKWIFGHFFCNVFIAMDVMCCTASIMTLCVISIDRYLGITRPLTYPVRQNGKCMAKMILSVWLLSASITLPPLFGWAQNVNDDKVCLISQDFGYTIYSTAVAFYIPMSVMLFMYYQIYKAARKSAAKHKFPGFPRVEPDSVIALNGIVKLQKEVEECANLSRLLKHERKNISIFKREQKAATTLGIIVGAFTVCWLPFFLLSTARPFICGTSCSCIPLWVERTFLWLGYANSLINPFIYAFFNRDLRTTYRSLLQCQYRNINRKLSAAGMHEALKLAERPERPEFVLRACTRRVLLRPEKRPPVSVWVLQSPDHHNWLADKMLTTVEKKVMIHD
Method: The potencies of MC-170073, […], and MC-230079 as 5-HT7 antagonists were determined using the cAMP Hunter eXpress GPCR luminescence assay (DiscoveRx, 95-0163E3) and the manufacturer’s protocol. Cryopreserved U2OS cells expressing h5-HT7D were seeded into 96-well white-walled clear bottom tissue culture-treated plates (31,250 cells/well) and were allowed to recover for 16 h at 37°C in a humidified incubator with 5% CO2. The media was aspirated and replaced with 30-µL cell assay buffer (CAB). Cells were preincubated at 37°C for 15 min with 7.5 µL of 6× final concentration of 5 to 10 concentrations in triplicate of test compounds in CAB. Cells were then stimulated for 30 min at 37°C with 7.5 µL of 900 nM of the full agonist 5-HT in cell assay buffer (final concentration 150 nM; an EC80). cAMP levels/well were determined at room temperature by adding 15 µL of cAMP antibody and 60 µL of cAMP working detection solution, followed by the addition of 60 µL of solution A after 1 h incubation. Luminescence was read 16 h later with an EnVision multilabel plate reader. The IC50 of test compounds was calculated using GraphPad’s Prism 5 (GraphPad Software, La Jolla, CA) nonlinear curve-fitting program. The equilibrium dissociation constant for the competitive antagonists (KB) values was determined using the Cheng-Prusoff equation.

[5] = molecular target: human cytochrome P450 3A4 (Homo sapiens, UniProt P08684); assay: Cytochrome P450 inhibition assay, 3A4 (testosterone substrate, LC-MS/MS); format: in vitro ADME; settings: expressed enzyme, read-out: IC50 CYP3A4
Sequence of human cytochrome P450 3A4 (P08684 whole entry): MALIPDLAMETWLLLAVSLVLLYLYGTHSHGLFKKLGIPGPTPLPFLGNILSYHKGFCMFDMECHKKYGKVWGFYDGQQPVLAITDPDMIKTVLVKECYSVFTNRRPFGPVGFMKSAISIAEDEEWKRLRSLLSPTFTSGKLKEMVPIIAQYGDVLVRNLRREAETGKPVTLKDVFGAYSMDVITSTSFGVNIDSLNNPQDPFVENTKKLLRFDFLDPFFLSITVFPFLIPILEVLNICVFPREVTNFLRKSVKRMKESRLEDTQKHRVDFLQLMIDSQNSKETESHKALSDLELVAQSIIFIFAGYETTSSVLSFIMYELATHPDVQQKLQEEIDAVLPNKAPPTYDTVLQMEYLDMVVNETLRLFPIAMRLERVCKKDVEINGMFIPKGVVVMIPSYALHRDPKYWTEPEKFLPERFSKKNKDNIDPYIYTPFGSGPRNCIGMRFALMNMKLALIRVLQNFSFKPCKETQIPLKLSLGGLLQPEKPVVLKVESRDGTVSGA
Method: (§1) Compounds were assessed for their ability to inhibit human cytochrome P450 3A4 using testosterone as a substrate and LC-MS/MS analysis, whereas the 2D6 and 2C9 assays used fluorescent substrates and EnVision plate reader analysis. Expressed enzymes were used to minimize nonspecific binding and membrane partitioning issues ([15]).

[6] = molecular target: CYP2C9 (Homo sapiens, UniProt P11712); assay: Cytochrome P450 inhibition assay, 2C9 (fluorescent substrate); format: in vitro ADME; settings: expressed enzyme
Sequence of CYP2C9 (P11712 whole entry): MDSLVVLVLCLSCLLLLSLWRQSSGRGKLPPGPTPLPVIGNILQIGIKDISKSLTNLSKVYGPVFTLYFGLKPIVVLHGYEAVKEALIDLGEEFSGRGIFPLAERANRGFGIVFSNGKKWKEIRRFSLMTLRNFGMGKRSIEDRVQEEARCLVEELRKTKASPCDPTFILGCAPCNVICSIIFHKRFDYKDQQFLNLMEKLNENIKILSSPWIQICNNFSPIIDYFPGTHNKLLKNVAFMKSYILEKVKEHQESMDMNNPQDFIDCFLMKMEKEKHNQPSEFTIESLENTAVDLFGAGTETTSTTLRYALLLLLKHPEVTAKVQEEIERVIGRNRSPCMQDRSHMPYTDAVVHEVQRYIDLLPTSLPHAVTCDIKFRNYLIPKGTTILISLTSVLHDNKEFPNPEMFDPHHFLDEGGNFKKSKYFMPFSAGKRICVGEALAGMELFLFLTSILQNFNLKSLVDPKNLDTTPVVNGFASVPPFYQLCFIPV
Method: as §1

[7] = 5 mg/kg, 5 mg/kg oral vs 1 mg/kg IV
[8] = pH 7.4, aqueous buffer, kinetic from dmso stock

%F (oral bioavailability) ([1]; 5 mg/kg oral vs 1 mg/kg IV) [%] | bioavailability [1, 7] [%] | AUC ([1]; IV, 1 mg/kg) [ng·h/mL] | Cmax ([1]; IV, 1 mg/kg) [ng/mL] | Tmax ([1]; IV, 1 mg/kg) [h] | clearance ([1]; IV, 1 mg/kg) [mL/min] | half-life ([1]; IV, 1 mg/kg) [h] | AUC ([1]; oral gavage, 5 mg/kg) [ng·h/mL] | Cmax ([1]; oral gavage, 5 mg/kg) [ng/mL] | Tmax ([1]; oral gavage, 5 mg/kg) [h] | half-life ([1]; oral gavage, 5 mg/kg) [h] | CL ([1]; oral gavage, 5 mg/kg) [L/h] | solubility [2, 8] [µM] | solubility [2] [µM] | Ki [3] [µM] | Kb [4] [µM] | IC50 [5] [µM] | IC50 [6] [µM] | SMILES
17.5 | 17 | 142 | 81 | 0.25 | 2.08 | 4.4 | 124 | 49 | 0.25 | 3.4 | 0.73 | 200 (≈ 69.3 µg/mL) | 168 (≈ 58.2 µg/mL) | > 10 | 0.018 | > 10 | > 10 | CCC1(CC)CC(CCN2CCN(c3ccc(O)cc3)CC2)OC1=O (stereo not shown) [MC-170073]
– | 13.7 | 277 | 527 | 0.083 | 1.4 | 3.97 | 190 | 123 | 0.5 | 3.78 | 0.511 | 200 (≈ 69.3 µg/mL) | – | > 10 | 0.021 | 9.46 | > 10 | CCC1(CC)C[C@@H](CCN2CCN(c3ccc(O)cc3)CC2)OC1=O [MC-230078]
